Experimental data published in patent EP1076558B1, “2-PHENYL-1-[-(2-AMINOETHOXY)-BENZYL -INDOLE IN COMBINATION WITH ESTROGENS” (Wyeth, priority 1998, dated 1999).
Marks after values point to notes of the source that are not given here.

Tests used:
Ovariectomized Rat = test: 6-Week Ovariectomized Rat Model; format: in vivo; settings: ovx rats, daily x7 days/week, mean; for Body Weight / Cholesterol / Uterine Weight: following 6 weeks of treatment; for BMD L4 / BMD Proximal Tibia: following 5 weeks of treatment
Description: Female Sprague Dawley CD rats, ovx or sham ovx, were obtained 1 day after surgery from Taconic Farm (weight range 240 - 275 g). They were housed 3 or 4 rats/cage in a room on a 14/10 (light/dark) schedule and provided with food (Purina 500 rat chow) and water ad libitum. Treatment for all studies began 1 day after the animals arrival and dosed 5 or 7 days per week as indicated for 6 weeks. A group of age matched sham operated rats not receiving any treatment served as an intact, estrogen replete control group for each study. All treatments were prepared in 1% tween 80 in normal saline at defined concentrations so that the treatment volume was 0.1mL/100g body weight. 17-beta estradiol was dissolved in corn oil (20 uG/mL) and delivered subcutaneously, 0.1 mL/rat. All dosages were adjusted at three week intervals according to group mean body weight measurements.
Five weeks after the initiation of treatment and one week prior to the termination of the study, each rat was evaluated for bone mineral density (BMD). The BMD's of the proximal tibiae (PT) and fourth lumbar vertabrae (L4) were measured in anesthetized rats using a dual energy X-ray absorptiometer (Eclipse XR-26, Norland Corp. Ft. Atkins, WI). The dual energy X-ray absorptiometer (DXA) measurements for each rat were performed as follows: Fifteen minutes prior to DXA measurements, the rat was anesthetized with an intraperitoneal injection of 100 mg/kg ketamine (Bristol Laboratories, Syracuse, NY) and 0.75 mg/kg acepromazine (Aveco, Ft.Dodge, IA). The rat was placed on an acrylic table under the DXA scanner perpendicular to its path; the limbs were extended and secured with paper tape to the surface of the table. A preliminary scan was performed at a scan speed of 50 mm/second with a scan resolution of 1.5 mm X 1.5 mm to determine the region of interest in PT and L4. Small subject software was employed at a scan speed of 10mm/second with resolution of 0.5 mm X 0.5 mm for final BMD measurements. The software allows the operator to define a 1.5 cm wide area to cover the total length of L4. The BMDs for respective sites were computed by the software as a function of the attenuation of the dual beam (46.8 KeV and 80 KeV) X-ray generated by the source underneath the subject and the detector travelling along the defined area above the subject. The data for BMD values (expressed in g/cm2) and individual scans were stored for statistical analysis. One week after BMD evaluation the rats were sacrificed by carbon dioxide suffocation and blood collected for cholesterol determination. The uteri were removed and the weights taken. Total cholesterol is determined using a Boehringer-Mannheim Hitachi 911 clinical analyzer using the Cholesterol/HP kit. Statitstics were compared using one-way analysis of variance with Dunnet's test.

Ishikawa cells = test: Ishikawa Cell Alkaline Phosphatase Assay; format: cell-based, human; settings: for % Activation: percent of response related to 1 nM 17β-estradiol, 48 h
Protocol: Cells were treated for 48 h prior to assay. […] Sample population for at each dose was n=8. […] Plates are placed at -80°C for a minimum of 15 minutes. Plates are thawed at 37°C followed by the addition of 150μL of 0.1 M Tris-HCl, pH 9.8, containing 4 mM para-nitrophenylphosphate (pNPP) to each well (final concentration. 3 mM pNPP). Absorbance and slope calculations were made using the […] Application program (Bio-Tek Instruments, Inc., Winooski, VT). […] Various compounds were assayed for estrogenic activity by the alkaline phosphatase method and corresponding ED50 values (95% C.I.) were calculated. The four listed in the following were used as as reference standards: A description of these methods is described by Holinka, […]., Kuramoto, H. and Gurpide, E. (1986) Effects of steroid hormones and antisteroids on alkaline phosphatase activity in human endometrial cancer cells (Ishikawa Line). Cancer Research, 46:2771-2774, and by […]. and […] simple and sensitive microtiter plate estrogen bioassay based on stimulation alkaline phosphatase in Ishikawa cells; […] Endocrinology, 6:2757-2762.

[1] = with 1 nM 17β-estradiol (antiestrogen test)

EC50 (Ishikawa cells; Homo sapiens, Ishikawa, estrogenic activity by the alkaline phosphatase method, reference standards, read-out: ED50 values (95% C.I.)) [nM]	Compound	Body Weight (Ovariectomized Rat; 2µg/rat, s.c.)	% Activation (Ishikawa cells; compound alone)	BMD L4 (Ovariectomized Rat; 0.3mg/kg, p.o.) [mg/cm^2]	BMD Proximal Tibia (Ovariectomized Rat; 0.3mg/kg, p.o.)	Body Weight (Ovariectomized Rat; 0.3mg/kg, p.o.) [g]	Cholesterol (Ovariectomized Rat; 0.3mg/kg, p.o.)	Uterine Weight (Ovariectomized Rat; 0.3mg/kg, p.o.) [mg]	% Activation (Ishikawa cells; [1])	BMD L4 (Ovariectomized Rat; 3mg/kg, p.o.) [mg/cm^2]	BMD Proximal Tibia (Ovariectomized Rat; 3mg/kg, p.o.)	Body Weight (Ovariectomized Rat; 3mg/kg, p.o.)	Cholesterol (Ovariectomized Rat; 3mg/kg, p.o.)	Uterine Weight (Ovariectomized Rat; 3mg/kg, p.o.)
[…]	C[C@]12CC[C@@H]3c4ccc(O)cc4CC[C@H]3[C@@H]1CC[C@@H]2O [17β-estradiol]	33.1** g	[…]											
	Cc1c(-c2ccc(O)cc2)n(Cc2ccc(OCCN3CCCCCC3)cc2)c2ccc(O)cc12 [Example No. 98, 1-[4-(2-Azepan-1-yl-ethoxy)-benzyl]-2-(4-hydroxy-phenyl)-3-methyl-1H-indol-5-ol]		1% activity (1% with 1 nM 17β-estradiol)	0.173	0.210** mg/cm^2	46.8	59.0** mg/dl	149.3	1% activity (1% with 1 nM 17β-estradiol)					
	O=C(c1ccc(OCCN2CCCCC2)cc1)c1c(-c2ccc(O)cc2)sc2cc(O)ccc12 [raloxifene]		5% activity (5% with 1 nM 17β-estradiol)						5% activity (5% with 1 nM 17β-estradiol)	0.170	0.207** mg/cm^2	25.3** g	55.0** mg/dl	191.6** mg
